Results taken from US7179613B2, “Methods of screening for a candidate modulator of glucokinase” (Vanderbilt University, priority 2003, dated 2007).
Where a chain is given by its changes, count along the chain named. Names may count otherwise.

Experiments:
GK association with nNOS [1] = molecular target: T1, GK association with nNOS (Mus musculus, UniProt P52792); assay type: binding; conditions: 1 mM DEANO in PBS, 37° C., 10 min
T1 construct: the inventors immunoprecipitated endogenous GK from cell lysates; endogenous in cells; host or cells: βTC3 cells
T1 sequence (P52792 1-465): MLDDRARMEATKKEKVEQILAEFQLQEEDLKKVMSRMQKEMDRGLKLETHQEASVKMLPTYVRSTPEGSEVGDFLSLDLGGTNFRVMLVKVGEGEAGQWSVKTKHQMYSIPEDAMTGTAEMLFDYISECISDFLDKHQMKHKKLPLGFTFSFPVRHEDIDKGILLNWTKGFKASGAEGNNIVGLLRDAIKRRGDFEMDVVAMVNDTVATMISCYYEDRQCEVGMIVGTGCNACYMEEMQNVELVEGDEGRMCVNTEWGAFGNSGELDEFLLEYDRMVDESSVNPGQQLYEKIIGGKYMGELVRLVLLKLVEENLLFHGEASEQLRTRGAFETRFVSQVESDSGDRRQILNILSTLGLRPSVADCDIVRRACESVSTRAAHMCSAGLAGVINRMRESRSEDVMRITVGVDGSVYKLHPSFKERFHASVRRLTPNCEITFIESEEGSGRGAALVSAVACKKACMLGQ

GK association with nNOS [2] = assay type: binding; conditions: 1 mM DEANO in PBS, 37° C., 10 min
GK [3] = assay: FRAP of GK-YFP to CFP-labeled insulin granules (GK association with secretory granules); assay type: cell-based; conditions: for Insulin-stimulated FRAP of mutant GK-YFP to CFP labeled granules: βTC3 cells, mutant GK-YFP and proinsulin-CFP
Description: (§1) Cell culture. βTC3 cells were cultured as described (Rizzo et al., 2002) and were transferred to media containing 1 g/L glucose overnight prior to observation. […] For FRAP, CFP-GK-YFP FRET, and nitrosylation experiments, DNA plasmids containing GK-YFP constructs, proinsulin-CFP, or CFP-GK-YFP were introduced by electroporation prior to seeding as previously described (Rizzo et al., 2002). For studies requiring co-transfection, plasmid DNA encoding the indicated constructs were transfected using either a ratio of (2 μg nNOS-CFP:1 μg GK-YFP:6 μl FUGENE (Roche Applied Science)) or of (1 μg nNOS-CFP-nuc:2 μg GK-YFP:6 μl FUGENE). Transfection was for 4 h in serum-free media, followed by replacement with low-glucose media. Observation took place the following day.
(§2) Microscopy. βTC3 cells were labeled with 5 μM DAF-FM diacetate (Molecular Probes) for 25 min at 25° C. in BSA free BMHH. Observation was with 488 nm excitation and 505–530 nm collection by laser scanning confocal microscopy (Zeiss LSM510). During observation, cells were heated to 32° C. using a Bioptechs Delta T system. FRAP and intramolecular FRET measurements were performed on cultured βTC3 cells as previously described (Rizzo et al., 2002). Statistical significance (p<0.05 by ANOVA or t-test as appropriate) is denoted by * and was determined from at least three granules in the same region or at least three cells for the FRET studies as compared to pre-treatment FRET ratios. Data shown is representative of at least 3 independent trials. Observation of nNOS-CFP-nuc and GK-YFP were performed using the same filter settings as the FRAP measurements. FRET between nNOS-CFP and GK-YFP was observed using 864 nm two-photon excitation along with a KP700/514 main beam splitter and standard CFP and YFP collection using a 40×, 1.3NA F-FLUAR oil immersion objective lens. For the FRET measurements, the temperature was maintained at 37° C. using a Zeiss S-M incubator controlled by the CTI temperature regulator along with humidification and an objective heater.

GK [4] = assay: Intramolecular FRET of CFP-GK-YFP (GK conformation); assay type: cell-based; conditions: 5 min; for Insulin-stimulated changes in FRET of mutant CFP-GK-YFP: 100 nM insulin
Description: as §1, §2

GK [5] = assay: Detection of S-nitrosylated GK (biotinylation, neutravidin-agarose or immunoprecipitation, Western blot); assay type: cell-based; conditions: for Nitrosylated GK in neutravidin precipitates: βTC3 cell lysates, insulin alone or L-NAME in addition to insulin; for S-nitrosylation of mutant GK-YFP: mutant GK-YFP constructs expressed in βTC3 cells
Description: Detection of nitrosylated proteins. S-nitrosylated proteins were biotinylated and isolated from cell lysates using the protocol described (Jaffrey et al., 2001). Briefly, cells were lysed in HEN buffer (250 mM Hepes pH7.7, 1 mM EDTA, 0.1 mM neocuproine) using 0.5% triton X-100 and 0.5% Cholate prior to protection of free cysteines with methyl methanethiosulfonate (Pierce) and derivatization of S-nitrosylated cysteines with ascorbic acid and biotin-HPDP (Pierce). Biotinylated proteins were either isolated by binding to neutravidin-agarose (Pierce), followed by 5 washes with a high salt buffer (20 mM Hepes pH 7.7, 600 mM NaCl, 1 mM EDTA and 0.5% Triton X-100) and elution in HNE buffer (20 mM Hepes pH 7.7, 100 mM NaCl, 1 mM EDTA) plus 100 mM 2-mercaptoethanol. Alternatively, GK-YFPs were isolated by immunopreciptation with A.V. Peptide Antibody (BD BioSciences Clontech) preconjugated to IgG agarose (Sigma). Western blots were then performed on eluted proteins to detect GK and nitrosylated proteins.

βTC3 cells = assay: NO production in βTC3 cells loaded with DAF-FM (confocal microscopy); assay type: cell-based; conditions: βTC3 cells starved 4 h, 100 nM insulin vs untreated cells
Description: as §1
Microscopy. βTC3 cells were labeled with 5 μM DAF-FM diacetate (Molecular Probes) for 25 min at 25° C. in BSA free BMHH. Observation was with 488 nm excitation and 505–530 nm collection by laser scanning confocal microscopy (Zeiss LSM510). During observation, cells were heated to 32° C. using a Bioptechs Delta T system. […] Statistical significance (p<0.05 by ANOVA or t-test as appropriate) is denoted by * and was determined from at least three granules in the same region or at least three cells for the FRET studies as compared to pre-treatment FRET ratios. […]

[6] = system: interaction between nNOS and GK; assay: FRET between nNOS-CFP and GK-YFP in living cells (two-photon microscopy); assay type: cell-based, rat; conditions: insulin 100 nM
Description: as §1
Generation of constructs. […]
Microscopy. βTC3 cells were labeled with 5 μM DAF-FM diacetate (Molecular Probes) for 25 min at 25° C. in BSA free BMHH. […] Statistical significance (p<0.05 by ANOVA or t-test as appropriate) is denoted by * and was determined from at least three granules in the same region or at least three cells for the FRET studies as compared to pre-treatment FRET ratios. […]

Question: How did the “Elution of nNOS from endogenous GK and GK-YFP precipitates” value (GK association with nNOS [1]) turn out when CCN(CC)/[N+]([O-])=N/O.CCNCC [DEANO, diethylamine nitric oxide] was run?
Answer: resulted in elution of nNOS

Question: What about the “Elution of nNOS from GK(C371S)-YFP precipitates” value (GK association with nNOS [2]) of the same molecule?
Answer: not from GK(C371S)-YFP precipitates

Question: What does the source list for COC(=O)[C@@H](N)CCCNC(=N)N[N+](=O)[O-] [L-NAME, N^G-nitro-L-arginine-methyl ester, reference compound]?
Answer: Effect on insulin-stimulated GK-YFP FRAP (GK [3]; L-NAME 5 mM, 10 min pretreatment, then insulin 100 nM, 5 min): blocked the stimulatory effects of insulin on GK-YFP FRAP; Glucose stimulated activation of GK FRAP and FRET (GK [3]; treatment with L-NAME, data not shown): sensitive; Effect on insulin-induced decrease of the CFP-GK-YFP FRET ratio (GK [4]; L-NAME 5 mM, 10 min before insulin 100 nM): prevented the decrease in the FRET ratio; Nitrosylated GK in neutravidin precipitates (GK [5]): not

Question: How did the “Reversal of NOS inhibition in GK-YFP FRAP” value (GK [3]; SNAP 100 μM, 1 min, after L-NAME and insulin) turn out when CC(=O)N[C@H](C(=O)O)C(C)(C)SN=O [SNAP, S-nitroso-N-acetylpenicillamin] was run?
Answer: effects of NOS inhibition were reversed

Question: What does the source list for insulin?
Answer: NO production (fluorescence of DAF-FM) (βTC3 cells): rapid increase in the fluorescence of DAF-FM; FRET ratio between CFP and YFP on opposing ends of GK (GK [4]; βTC3 cells, insulin 100 nM): decreases; Nitrosylated GK in neutravidin precipitates (GK [5]): detected; FRET between nNOS-CFP and GK(C371S)-YFP [6]: increased; FRET between nNOS-CFP and GK-YFP [6]: decrease

B1: GK-C371S: glucokinase with cysteine 371 mutated to serine; recombinant His-tagged, or YFP-tagged in cells (protein, UniProt P35557 1-465, looked up, variant C371S)
Hexokinase-4: MLDDRARMEAAKKEKVEQILAEFQLQEEDLKKVMRRMQKEMDRGLRLETHEEASVKMLPTYVRSTPEGSEVGDFLSLDLGGTNFRVMLVKVGEGEEGQWSVKTKHQMYSIPEDAMTGTAEMLFDYISECISDFLDKHQMKHKKLPLGFTFSFPVRHEDIDKGILLNWTKGFKASGAEGNNVVGLLRDAIKRRGDFEMDVVAMVNDTVATMISCYYEDHQCEVGMIVGTGCNACYMEEMQNVELVEGDEGRMCVNTEWGAFGDSGELDEFLLEYDRLVDESSANPGQQLYEKLIGGKYMGELVRLVLLRLVDENLLFHGEASEQLRTRGAFETRFVSQVESDTGDRKQIYNILSTLGLRPSTTDCDIVRRASESVSTRAAHMCSAGLAGVINRMRESRSEDVMRITVGVDGSVYKLHPSFKERFHASVRRLTPSCEITFIESEEGSGRGAALVSAVACKKACMLGQ
modifications: His tag or YFP fusion
notes: glucokinase with cysteine 371 mutated to serine; recombinant His-tagged, or YFP-tagged in cells
Question: For B1, which “Insulin-stimulated FRAP of mutant GK-YFP to CFP labeled granules” value (GK [3]) is on record?
Answer: stopped insulin-stimulated FRAP

Question: And the “Insulin-stimulated changes in FRET of mutant CFP-GK-YFP” value (GK [4]; βTC3 cells)?
Answer: stopped

Question: And the “S-nitrosylation of mutant GK-YFP” value (GK [5])?
Answer: eliminated GK nitrosylation

B2: C364S: glucokinase with cysteine 364 mutated to serine, YFP-tagged construct (protein, UniProt P35557 1-465, looked up, variant C364S)
Hexokinase-4: B1 Hexokinase-4 with C364S, S371C
modifications: YFP fusion
notes: glucokinase with cysteine 364 mutated to serine, YFP-tagged construct
Question: Which “Insulin-stimulated FRAP of mutant GK-YFP to CFP labeled granules” value (GK [3]) does the source give for B2 here?
Answer: did not have a significant effect

Question: And the “Insulin-stimulated changes in FRET of mutant CFP-GK-YFP” value (GK [4]; βTC3 cells)?
Answer: did not have a significant effect

Question: What about the “S-nitrosylation of mutant GK-YFP” value (GK [5]) of the same molecule?
Answer: slight decrease in the amount of nitrosylated GK
